Experiments:
[1] = biological target: T1, Cyclin-dependent kinase-like 5 (Homo sapiens) (UniProt O76039); experiment: Selectivity interaction (Kinase panel (Z-LYTE Assay)) EUB0001632a CDKL5; conditions: at 10 µM
T1 sequence (whole entry): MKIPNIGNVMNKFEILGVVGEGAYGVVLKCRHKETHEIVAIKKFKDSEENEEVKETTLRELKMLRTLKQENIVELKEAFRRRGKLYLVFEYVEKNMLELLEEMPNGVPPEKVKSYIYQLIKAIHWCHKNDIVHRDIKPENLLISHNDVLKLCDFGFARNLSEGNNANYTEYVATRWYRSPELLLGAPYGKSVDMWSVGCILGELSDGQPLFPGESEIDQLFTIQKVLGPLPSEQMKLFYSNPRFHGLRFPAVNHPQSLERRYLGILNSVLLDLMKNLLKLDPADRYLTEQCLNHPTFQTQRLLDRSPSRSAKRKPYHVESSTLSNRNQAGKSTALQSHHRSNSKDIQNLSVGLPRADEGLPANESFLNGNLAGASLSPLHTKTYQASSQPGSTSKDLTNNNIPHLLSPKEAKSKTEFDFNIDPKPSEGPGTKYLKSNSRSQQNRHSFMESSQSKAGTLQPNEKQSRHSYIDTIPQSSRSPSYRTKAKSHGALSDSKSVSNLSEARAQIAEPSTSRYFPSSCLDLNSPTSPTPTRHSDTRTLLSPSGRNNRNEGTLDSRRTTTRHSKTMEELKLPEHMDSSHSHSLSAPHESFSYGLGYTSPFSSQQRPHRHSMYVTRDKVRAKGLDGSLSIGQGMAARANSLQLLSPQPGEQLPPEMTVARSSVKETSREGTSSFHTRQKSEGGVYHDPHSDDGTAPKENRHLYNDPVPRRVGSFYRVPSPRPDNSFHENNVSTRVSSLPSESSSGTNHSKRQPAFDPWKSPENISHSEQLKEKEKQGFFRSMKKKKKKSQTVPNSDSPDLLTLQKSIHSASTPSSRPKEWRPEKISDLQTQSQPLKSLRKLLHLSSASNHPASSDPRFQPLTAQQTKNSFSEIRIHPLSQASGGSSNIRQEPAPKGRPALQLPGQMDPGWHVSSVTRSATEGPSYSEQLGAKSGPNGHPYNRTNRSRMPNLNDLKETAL

[2] = biological target: Non-receptor tyrosine-protein kinase TYK2 (Homo sapiens, UniProt P29597); experiment: Selectivity interaction (ActivX KiNativ screen (kinase selectivity in THP-1 cell lysates)) EUB0000639a TYK2; format: subcellular; conditions: lysate, at 0.2 µM
[3] = biological target: Serine/threonine-protein kinase MARK2 (Homo sapiens) (UniProt Q7KZI7); experiment: Selectivity interaction (ActivX KiNativ screen (kinase selectivity in THP-1 cell lysates)) EUB0000639a MARK2; format: subcellular; conditions: lysate, at 5 µM
[4] = biological target: T2, Dual specificity mitogen-activated protein kinase kinase 4 (Homo sapiens) (UniProt P45985); experiment: Selectivity interaction (ActivX KiNativ screen (kinase selectivity in THP-1 cell lysates)) EUB0000639a MAP2K4; format: subcellular; conditions: lysate
T2 sequence (whole entry): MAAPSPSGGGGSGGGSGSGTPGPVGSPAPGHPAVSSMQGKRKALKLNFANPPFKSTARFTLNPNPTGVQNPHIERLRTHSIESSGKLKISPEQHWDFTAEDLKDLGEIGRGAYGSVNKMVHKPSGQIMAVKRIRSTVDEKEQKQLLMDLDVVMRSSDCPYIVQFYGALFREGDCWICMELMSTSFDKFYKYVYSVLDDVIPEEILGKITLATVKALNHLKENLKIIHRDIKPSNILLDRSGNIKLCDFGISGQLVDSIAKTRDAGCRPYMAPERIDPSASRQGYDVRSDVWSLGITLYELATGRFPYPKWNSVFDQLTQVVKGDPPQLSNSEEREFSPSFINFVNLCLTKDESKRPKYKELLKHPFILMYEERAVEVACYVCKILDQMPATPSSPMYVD

[5] = biological target: T3, Activin receptor type-1B (Homo sapiens) (UniProt P36896); experiment: Selectivity interaction (KinomeScan (DiscoverX)) EUB0000595a ACVR1B; conditions: at 10 µM
T3 sequence (whole entry): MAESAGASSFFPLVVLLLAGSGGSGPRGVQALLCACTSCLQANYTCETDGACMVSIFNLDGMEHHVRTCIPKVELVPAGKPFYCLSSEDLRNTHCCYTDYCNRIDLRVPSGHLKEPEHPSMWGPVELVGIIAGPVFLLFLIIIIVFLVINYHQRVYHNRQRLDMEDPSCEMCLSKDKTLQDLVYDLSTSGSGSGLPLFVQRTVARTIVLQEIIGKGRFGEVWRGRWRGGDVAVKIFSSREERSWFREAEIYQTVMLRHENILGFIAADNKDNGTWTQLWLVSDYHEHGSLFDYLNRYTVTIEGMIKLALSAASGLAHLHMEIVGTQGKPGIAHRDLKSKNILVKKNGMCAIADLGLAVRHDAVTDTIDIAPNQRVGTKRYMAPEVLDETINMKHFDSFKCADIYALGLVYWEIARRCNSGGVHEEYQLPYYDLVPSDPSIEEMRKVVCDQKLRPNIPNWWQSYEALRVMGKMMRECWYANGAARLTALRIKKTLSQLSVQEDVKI

[6] = biological target: D(4) dopamine receptor (Homo sapiens) (UniProt P21917); experiment: Selectivity interaction (Eurofins CEREP Diversity Profile (receptors and ion channels)) EUB0000279b DRD4; conditions: at 10 µM
[7] = biological target: Histone-lysine N-methyltransferase PRDM9 (Homo sapiens) (UniProt Q9NQV7); conditions: at 1 µM
[8] = biological target: Cyclin-dependent kinase 8 (Homo sapiens, UniProt P49336); experiment: Selectivity interaction (ActivX KiNativ screen (ex vivo kinase selectivity in human PBMCs)) EUB0001619a CDK8; format: cell-based; conditions: PBMC, at 1 µM
[9] = biological target: T4, Phosphatidylinositol 5-phosphate 4-kinase type-2 beta (Homo sapiens) (UniProt P78356); experiment: Selectivity interaction (ActivX KiNativ screen (ex vivo kinase selectivity in human PBMCs)) EUB0001619a PIP4K2B; format: cell-based; conditions: PBMC, at 1 µM
T4 sequence (whole entry): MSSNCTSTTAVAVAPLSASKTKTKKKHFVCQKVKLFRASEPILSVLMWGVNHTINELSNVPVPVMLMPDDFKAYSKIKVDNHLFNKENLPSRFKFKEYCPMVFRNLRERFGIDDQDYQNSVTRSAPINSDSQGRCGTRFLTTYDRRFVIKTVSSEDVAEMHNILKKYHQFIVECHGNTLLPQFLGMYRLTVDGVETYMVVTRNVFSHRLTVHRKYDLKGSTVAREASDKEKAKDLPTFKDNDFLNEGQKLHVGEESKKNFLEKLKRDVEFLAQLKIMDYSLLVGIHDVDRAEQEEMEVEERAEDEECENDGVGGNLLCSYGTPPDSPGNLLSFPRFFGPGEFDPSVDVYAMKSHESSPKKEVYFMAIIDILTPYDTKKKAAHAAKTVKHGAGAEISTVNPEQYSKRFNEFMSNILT

Cyclin-dependent kinase 8, sequence (P49336 whole entry): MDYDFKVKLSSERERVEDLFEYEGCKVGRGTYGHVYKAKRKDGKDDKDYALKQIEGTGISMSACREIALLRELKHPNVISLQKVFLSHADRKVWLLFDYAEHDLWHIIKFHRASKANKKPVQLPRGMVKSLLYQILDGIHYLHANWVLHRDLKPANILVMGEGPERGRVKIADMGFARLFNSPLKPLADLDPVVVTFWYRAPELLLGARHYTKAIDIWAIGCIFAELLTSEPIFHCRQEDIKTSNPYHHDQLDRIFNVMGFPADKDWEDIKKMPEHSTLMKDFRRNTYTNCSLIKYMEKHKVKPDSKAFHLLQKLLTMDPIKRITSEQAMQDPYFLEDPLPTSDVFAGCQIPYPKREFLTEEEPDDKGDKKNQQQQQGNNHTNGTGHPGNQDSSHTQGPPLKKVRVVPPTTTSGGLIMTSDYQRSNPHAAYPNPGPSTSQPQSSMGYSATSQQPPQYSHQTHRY
Histone-lysine N-methyltransferase PRDM9 (Homo sapiens), sequence (Q9NQV7 whole entry): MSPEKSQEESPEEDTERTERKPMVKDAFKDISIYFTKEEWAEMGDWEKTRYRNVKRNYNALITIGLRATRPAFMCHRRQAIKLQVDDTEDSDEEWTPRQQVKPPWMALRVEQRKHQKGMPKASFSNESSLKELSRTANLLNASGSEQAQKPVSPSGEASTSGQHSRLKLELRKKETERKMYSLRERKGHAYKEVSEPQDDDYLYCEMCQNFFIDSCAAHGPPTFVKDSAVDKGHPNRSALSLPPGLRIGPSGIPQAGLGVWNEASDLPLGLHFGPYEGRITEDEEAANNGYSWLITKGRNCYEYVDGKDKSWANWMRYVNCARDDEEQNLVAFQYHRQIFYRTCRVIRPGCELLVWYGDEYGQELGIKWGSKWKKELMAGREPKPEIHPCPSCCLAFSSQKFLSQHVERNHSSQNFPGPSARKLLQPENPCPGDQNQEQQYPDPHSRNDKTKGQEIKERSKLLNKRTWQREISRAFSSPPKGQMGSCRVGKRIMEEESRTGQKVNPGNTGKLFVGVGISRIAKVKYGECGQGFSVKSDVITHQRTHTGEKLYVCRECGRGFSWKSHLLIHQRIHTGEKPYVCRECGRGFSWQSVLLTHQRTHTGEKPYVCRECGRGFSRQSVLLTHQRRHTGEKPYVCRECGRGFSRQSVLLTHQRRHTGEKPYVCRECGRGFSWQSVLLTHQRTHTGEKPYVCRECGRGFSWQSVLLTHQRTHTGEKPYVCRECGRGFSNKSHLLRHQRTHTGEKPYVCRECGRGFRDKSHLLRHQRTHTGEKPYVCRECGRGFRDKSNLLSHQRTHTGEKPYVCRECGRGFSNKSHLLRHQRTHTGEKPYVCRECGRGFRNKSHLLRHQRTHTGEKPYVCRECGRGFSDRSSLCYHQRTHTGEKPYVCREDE
D(4) dopamine receptor (Homo sapiens), sequence (P21917 whole entry): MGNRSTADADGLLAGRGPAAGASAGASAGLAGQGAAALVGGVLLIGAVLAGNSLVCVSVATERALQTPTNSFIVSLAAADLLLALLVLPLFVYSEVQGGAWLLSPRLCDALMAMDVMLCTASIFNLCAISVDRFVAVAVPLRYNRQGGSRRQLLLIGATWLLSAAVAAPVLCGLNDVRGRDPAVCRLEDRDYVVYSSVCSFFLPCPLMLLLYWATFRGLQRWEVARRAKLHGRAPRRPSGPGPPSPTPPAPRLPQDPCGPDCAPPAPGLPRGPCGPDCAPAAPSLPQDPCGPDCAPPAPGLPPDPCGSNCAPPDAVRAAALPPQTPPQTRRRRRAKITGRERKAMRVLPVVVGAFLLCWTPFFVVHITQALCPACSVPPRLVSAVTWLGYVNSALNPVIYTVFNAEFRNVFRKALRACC
Serine/threonine-protein kinase MARK2 (Homo sapiens), sequence (Q7KZI7 whole entry): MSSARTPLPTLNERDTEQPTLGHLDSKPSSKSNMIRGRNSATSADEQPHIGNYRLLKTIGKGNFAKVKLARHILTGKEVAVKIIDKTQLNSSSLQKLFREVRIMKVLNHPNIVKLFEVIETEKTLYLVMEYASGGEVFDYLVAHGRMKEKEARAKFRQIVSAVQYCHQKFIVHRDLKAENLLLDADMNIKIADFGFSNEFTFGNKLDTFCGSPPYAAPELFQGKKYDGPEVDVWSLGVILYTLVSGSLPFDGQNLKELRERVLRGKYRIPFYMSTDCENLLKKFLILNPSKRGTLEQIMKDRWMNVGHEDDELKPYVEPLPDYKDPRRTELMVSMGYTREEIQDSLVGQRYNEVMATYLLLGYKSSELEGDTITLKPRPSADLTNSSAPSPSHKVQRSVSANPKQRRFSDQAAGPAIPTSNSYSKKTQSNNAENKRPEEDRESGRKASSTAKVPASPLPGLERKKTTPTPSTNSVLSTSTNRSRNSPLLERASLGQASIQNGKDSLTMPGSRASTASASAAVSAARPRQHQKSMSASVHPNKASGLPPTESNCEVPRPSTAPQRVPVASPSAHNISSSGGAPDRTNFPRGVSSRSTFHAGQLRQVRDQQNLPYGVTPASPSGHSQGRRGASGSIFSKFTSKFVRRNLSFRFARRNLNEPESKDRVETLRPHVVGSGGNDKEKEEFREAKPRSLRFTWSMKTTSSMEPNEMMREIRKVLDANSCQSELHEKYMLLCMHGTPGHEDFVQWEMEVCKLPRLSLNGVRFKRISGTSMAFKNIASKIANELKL
Non-receptor tyrosine-protein kinase TYK2, sequence (P29597 whole entry): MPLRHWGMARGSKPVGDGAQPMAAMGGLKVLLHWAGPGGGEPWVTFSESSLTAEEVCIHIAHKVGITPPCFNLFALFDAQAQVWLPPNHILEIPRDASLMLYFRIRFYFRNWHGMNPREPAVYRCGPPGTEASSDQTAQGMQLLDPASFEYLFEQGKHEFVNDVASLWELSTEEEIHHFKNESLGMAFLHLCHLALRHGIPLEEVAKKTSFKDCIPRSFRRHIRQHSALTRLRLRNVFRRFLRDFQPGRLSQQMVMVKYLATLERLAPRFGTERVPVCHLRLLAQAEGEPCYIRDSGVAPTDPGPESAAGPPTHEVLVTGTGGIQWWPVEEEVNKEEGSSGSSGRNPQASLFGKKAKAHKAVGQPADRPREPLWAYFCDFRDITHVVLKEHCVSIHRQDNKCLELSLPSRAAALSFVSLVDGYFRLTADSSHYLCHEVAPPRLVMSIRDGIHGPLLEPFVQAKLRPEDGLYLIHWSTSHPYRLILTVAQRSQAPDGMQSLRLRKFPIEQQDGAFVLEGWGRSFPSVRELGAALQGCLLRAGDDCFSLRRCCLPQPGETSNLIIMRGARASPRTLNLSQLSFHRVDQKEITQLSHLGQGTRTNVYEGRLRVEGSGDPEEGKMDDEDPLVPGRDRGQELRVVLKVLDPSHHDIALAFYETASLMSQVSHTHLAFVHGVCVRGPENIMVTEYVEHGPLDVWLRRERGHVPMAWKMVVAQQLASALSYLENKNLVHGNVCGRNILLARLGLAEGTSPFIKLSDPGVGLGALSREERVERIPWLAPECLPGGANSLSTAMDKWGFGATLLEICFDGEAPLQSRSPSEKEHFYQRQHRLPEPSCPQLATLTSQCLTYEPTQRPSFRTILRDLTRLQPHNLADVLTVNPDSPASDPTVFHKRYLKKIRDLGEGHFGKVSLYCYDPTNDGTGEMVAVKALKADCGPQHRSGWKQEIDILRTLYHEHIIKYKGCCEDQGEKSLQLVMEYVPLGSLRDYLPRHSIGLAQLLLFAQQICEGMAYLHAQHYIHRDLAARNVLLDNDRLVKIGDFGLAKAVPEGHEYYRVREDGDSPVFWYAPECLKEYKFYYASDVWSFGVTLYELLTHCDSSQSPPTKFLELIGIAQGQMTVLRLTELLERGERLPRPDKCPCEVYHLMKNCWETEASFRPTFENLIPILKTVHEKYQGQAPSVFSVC

Cn1cc(-n2cnc3c(NCc4nc5cc(Cl)c(Cl)cc5[nH]4)nc(N4CCOCC4)nc32)cn1
% of control [1]: 4.16%

CC[C@@H]1[C@H](F)C(=O)N[C@@H]1COc1nccc2cc(C(N)=O)c(OC)cc12 [ZIMLOVISERTIB]
% of inhibition [2]: 14% | % of inhibition [3]: 45.6% | % of inhibition ([4]; at 0.01 µM): -9.4% | % of inhibition ([4]; at 0.04 µM): -17.8% | % of inhibition ([4]; at 0.2 µM): 0.7% | % of inhibition ([4]; at 1 µM): 17.6% | % of inhibition ([4]; at 5 µM): 56.2%

COCC(=O)NC/C=C/c1ccc2ncnc(Nc3ccc(Oc4ccc(C)nc4)c(C)c3)c2c1 [CP-724714]
% of control [5]: 100%

CC(=O)c1cc(-c2ccccc2OCC2CC2)c2ncccn12
% of control [6]: 103%

CNCCN1CCC(c2cc(CN(C)C(=O)c3cccc(Oc4ccccc4)c3)ccn2)CC1
% activity [7]: > 90%

N#Cc1cccc(-c2c[nH]c3ncnc(N4CCOCC4)c23)c1
% of inhibition [8]: 36% | % of inhibition [9]: 16%
